Target: Endothelin-converting enzyme 1 (Cavia porcellus)
Test: In vitro inhibition of phosphoramidon-sensitive membrane bound zinc metalloprotease Endothelin-converting enzyme from partially purified guinea pig lungs

| SMILES | IC50 [nM] |
| --- | --- |
| CC(C)(C)C(=O)N[C@@H](Cc1ccccc1)P(=O)(O)CC1(C(=O)N[C@@H](Cc2c[nH]c3ccccc23)C(=O)O)CCCC1 [(S)-2-[(1-{[(R)-1-(2,2-Dimethyl-propionylamino)-2-phenyl-ethyl]-hydroxy-phosphinoylmethyl}-cyclopentanecarbonyl)-amino]-3-(1H-indol-3-yl)-propionic acid] | 550 |
| CC(=O)N[C@@H](Cc1ccccc1)P(=O)(O)CC1(C(=O)N[C@@H](Cc2c[nH]c3ccccc23)C(=O)O)CCCC1 [(S)-2-({1-[((R)-1-Acetylamino-2-phenyl-ethyl)-hydroxy-phosphinoylmethyl]-cyclopentanecarbonyl}-amino)-3-(1H-indol-3-yl)-propionic acid] | 600 |
| CC(C)C[C@H](NP(=O)(O)O)C(=O)N[C@@H](Cc1c[nH]c2ccccc12)C(=O)O [(S)-3-(1H-Indol-3-yl)-2-((S)-4-methyl-2-phosphonoamino-pentanoylamino)-propionic acid] | 1500 |
| COc1ccc(C(=O)N[C@@H](Cc2ccccc2)P(=O)(O)CC2(C(=O)N[C@@H](Cc3c[nH]c4ccccc34)C(=O)O)CCCC2)cc1 [(S)-2-[(1-{Hydroxy-[(R)-1-(4-methoxy-benzoylamino)-2-phenyl-ethyl]-phosphinoylmethyl}-cyclopentanecarbonyl)-amino]-3-(1H-indol-3-yl)-propionic acid] | 160 |
| NC(=O)C[C@H](NC(=O)C1(CP(=O)(O)[C@H](Cc2ccccc2)NC(=O)OCc2ccccc2)CCCC1)C(=O)O [(S)-2-({1-[((R)-1-Benzyloxycarbonylamino-2-phenyl-ethyl)-hydroxy-phosphinoylmethyl]-cyclopentanecarbonyl}-amino)-succinamic acid] | > 1000 |

The next lines start with the values.

| IC50 [nM] | SMILES |
| --- | --- |
| 190 | O=C(N[C@@H](Cc1ccccc1)P(=O)(O)CC1(C(=O)N[C@@H](Cc2c[nH]c3ccccc23)C(=O)O)CCCC1)OCc1ccccc1 [(S)-2-({1-[((R)-1-Benzyloxycarbonylamino-2-phenyl-ethyl)-hydroxy-phosphinoylmethyl]-cyclopentanecarbonyl}-amino)-3-(1H-indol-3-yl)-propionic acid] |
| 90 | NCc1ccc(C(=O)N[C@@H](Cc2ccccc2)P(=O)(O)CC2(C(=O)N[C@@H](Cc3c[nH]c4ccccc34)C(=O)O)CCCC2)cc1 [(S)-2-[(1-{[(R)-1-(4-Aminomethyl-benzoylamino)-2-phenyl-ethyl]-hydroxy-phosphinoylmethyl}-cyclopentanecarbonyl)-amino]-3-(1H-indol-3-yl)-propionic acid] |
| > 10000 | O=C(N[C@H](Cc1ccccc1)P(=O)(O)CC1(C(=O)N[C@@H](Cc2c[nH]c3ccccc23)C(=O)O)CCCC1)OCc1ccccc1 [(S)-2-({1-[((S)-1-Benzyloxycarbonylamino-2-phenyl-ethyl)-hydroxy-phosphinoylmethyl]-cyclopentanecarbonyl}-amino)-3-(1H-indol-3-yl)-propionic acid] |
| 250 | O=C(N[C@@H](Cc1ccccc1)P(=O)(O)CC1(C(=O)N[C@@H](Cc2c[nH]c3ccccc23)C(=O)O)CCCC1)c1ccccc1 [(S)-2-({1-[((R)-1-Benzoylamino-2-phenyl-ethyl)-hydroxy-phosphinoylmethyl]-cyclopentanecarbonyl}-amino)-3-(1H-indol-3-yl)-propionic acid] |
| 120 | O=C(N[C@@H](Cc1ccccc1)P(=O)(O)CC1(C(=O)N[C@@H](Cc2ccc(O)cc2)C(=O)O)CCCC1)OCc1ccccc1 [(S)-2-({1-[((R)-1-Benzyloxycarbonylamino-2-phenyl-ethyl)-hydroxy-phosphinoylmethyl]-cyclopentanecarbonyl}-amino)-3-(4-hydroxy-phenyl)-propionic acid] |
